Legend:
NAD^+ = assay: Brain NAD+ measurement after TBI; type: in vivo, mouse
Description: (§1) Drug preparation and administration: CGP3466B (Sigma-Aldrich, SML1941) was dissolved in DMSO and then diluted in sterile saline. The final working stock was 0.0014 mg/ml for administering the 0.014 mg/kg dose. Intraperitoneal administration of CGP3466B was initiated 15 min or 24 h after injury, and tissues were harvested 6 h (for SNO-GAPDH, SNO-SIRT1 measurement) or 2 weeks (for ac-tau measurement) later, respectively. Salsalate (AdipoGen, AG-CR1-3574) was dissolved in DMSO and then diluted in sterile PBS. The final working stocks were as follows: 2.5 mg/ml (25 mg/kg dose), 1 mg/ml (10 mg/kg dose), 0.5 mg/ml (5 mg/kg dose). Daily intraperitoneal administration of salsalate was initiated 24 hr after injury and continued throughout behavioral testing. P7C3-A20 and FK866 (Sigma-Aldrich, F8557) were first dissolved in 1 vol of DMSO, followed by addition of 4 vol of Kolliphor and vigorously vortexing. The solution was then diluted with 30 vol of filtered 5% dextrose (pH 7.0). EX527 (Selleckchem, S1541) was dissolved in 1% DMSO+30% polyethylene glycol+1% Tween 80. Daily intraperitoneal administration of P7C3-A20 was initiated 24 hr after poly-traumatic brain injury. EX527 (10 mg/kg) was administer once a day and FK866 was treated twice per day, with the first injection given at the same time as P7C3-A20 (20 mg/kg) and the second injection given 6 h later (LoCoco et al., 2017 eLife). […]

axon initial segment = assay: Axon initial segment (AIS) degradation after TBI (AnkG, βIV-spectrin staining); type: in vivo, mouse
Description: (§2) Drug preparation and administration: CGP3466B (Sigma-Aldrich, SML1941) was dissolved in DMSO and then diluted in sterile saline. The final working stock was 0.0014 mg/ml for administering the 0.014 mg/kg dose. Intraperitoneal administration of CGP3466B was initiated 15 min or 24 h after injury, and tissues were harvested 6 h (for SNO-GAPDH, SNO-SIRT1 measurement) or 2 weeks (for ac-tau measurement) later, respectively. Salsalate (AdipoGen, AG-CR1-3574) was dissolved in DMSO and then diluted in sterile PBS. The final working stocks were as follows: 2.5 mg/ml (25 mg/kg dose), 1 mg/ml (10 mg/kg dose), 0.5 mg/ml (5 mg/kg dose). Daily intraperitoneal administration of salsalate was initiated 24 hr after injury and continued throughout behavioral testing. P7C3-A20 and FK866 (Sigma-Aldrich, F8557) were first dissolved in 1 vol of DMSO, followed by addition of 4 vol of Kolliphor and vigorously vortexing. The solution was then diluted with 30 vol of filtered 5% dextrose (pH 7.0). EX527 (Selleckchem, S1541) was dissolved in 1% DMSO+30% polyethylene glycol+1% Tween 80. Daily intraperitoneal administration of P7C3-A20 was initiated 24 hr after poly-traumatic brain injury. EX527 (10 mg/kg) was administer once a day and FK866 was treated twice per day, with the first injection given at the same time as P7C3-A20 (20 mg/kg) and the second injection given 6 h later (LoCoco et al., 2017 eLife). Diflunisal was first dissolved in 1 vol of DMSO, followed by addition of 2 vol of Kolliphor and vigorously vortexing. The solution was then diluted with 7 vol of saline to the appropriate concentration for administration at 25, 50, or 100 mg/kg.
(§3) The pressure in the side not containing the mouse was increased to cause membrane rupture at 20 pounds per square inch (PSI), which generates an about 1-2 ms jet airflow of 137.9+/−13.79 kPa that passes through the animal's head. The head remains untethered in a padded holder, while the body is fully shielded by a metal tube. The jet of air produced upon membrane rupture provides a concussive injury, which is followed by acceleration/deceleration of the head and then exposure to the ensuing blast wave within an enclosed space.
Immunohistochemistry: Mice were transcardially perfused with cold 1× phosphate-buffered saline (PBS) followed by 4% paraformaldehyde in PBS at pH 7.4 under anesthesia. Brains were carefully removed and post-fixed in 4% paraformaldehyde overnight at 4° C. Brains were immersed in 30% sucrose in PBS for 72 h at 4° C. and then rapidly frozen in 2-methylbutane pre-cooled to −20° C. with dry ice. Brains were cut coronally (40 μm) and sections were stored in cryoprotective solution (150 mM Ethylene glycol, 100 mM glycerol, 250 mM PBS) at −20° C. For tau and NeuN staining, sections were washed three times with PBS for 5 min and then treated with 0.2% Triton X-100 in PBS for 15 min. Sections were washed with PBS and then incubated with 100 mM glycine for 15 min. After blocking sections using blocking buffer (1% bovine serum albumin, 10% normal goat serum, 0.3 M glycine) for 30 min, primary antibodies (Tau, Invitrogen, #13-6400, 1:100, NeuN, EMD Millipore Cor., #MABN-140, 1:500) were incubated overnight at 4° C. Sections were washed three times with PBS (5 min each) and then incubated with Alexa Fluor 488 goat anti-mouse (Invitrogen, A11001, 1:200) or Alexa Fluor 568 goat anti-rabbit (Life technologies, A11011, 1:200) at room temperature for 2 h. […]

tau = assay: Tau mislocalization after TBI (tau and NeuN immunohistochemistry); type: in vivo, mouse
Description: as §2, §3
Immunohistochemistry: Mice were transcardially perfused with cold 1× phosphate-buffered saline (PBS) followed by 4% paraformaldehyde in PBS at pH 7.4 under anesthesia. Brains were carefully removed and post-fixed in 4% paraformaldehyde overnight at 4° C. Brains were immersed in 30% sucrose in PBS for 72 h at 4° C. and then rapidly frozen in 2-methylbutane pre-cooled to −20° C. with dry ice. Brains were cut coronally (40 μm) and sections were stored in cryoprotective solution (150 mM Ethylene glycol, 100 mM glycerol, 250 mM PBS) at −20° C. […]

GAPDH = target: T1, GAPDH (Mus musculus, UniProt P16858); assay: S-nitrosylation of GAPDH after TBI (SNO-resin assisted capture, western blot); type: in vivo; conditions: P7C3-A20 treatment after TBI
T1 construct: from tissue; host or cells: cerebral cortex of C57BL/6J mice after TBI
Description: as §1, with “eLife). Diflunisal was first dissolved in 1 vol of DMSO, followed by addition of 2 vol of Kolliphor and vigorously vortexing.” for “eLife).”
SNO-resin assisted capture (SNO-RAC): SNO-RAC was performed as described previously (Forrester, 2009). […] After two times centrifugation (20,000 g at 4° C. for 20 min), protein concentration of supernatants was determined using Coomassie protein assay (Thermo Scientific, #1856210). […] SNO-proteins were then eluted with 2× Laemmli Sample Buffer (Bio-Rad Laboratories, Inc., #1610737) with 10% beta-mercaptoethanol (Bio-Rad Laboratories, Inc., #1610710) and analyzed by SDS-PAGE and immunoblotting.

p300/CBP = conditions: literature (Shirakawa et al., 2016); cited from earlier work
[1] = test system: dementia, minor cognitive impairment, cognitive decline; conditions: about 19,000 subjects, placebo-controlled; cited from earlier work
[2] = co-treatment with P7C3-A20, EX527 10 mg/kg once a day, FK866 twice per day
[3] = P7C3-A20 daily IP from 24 h after TBI

T1 sequence (P16858 whole entry): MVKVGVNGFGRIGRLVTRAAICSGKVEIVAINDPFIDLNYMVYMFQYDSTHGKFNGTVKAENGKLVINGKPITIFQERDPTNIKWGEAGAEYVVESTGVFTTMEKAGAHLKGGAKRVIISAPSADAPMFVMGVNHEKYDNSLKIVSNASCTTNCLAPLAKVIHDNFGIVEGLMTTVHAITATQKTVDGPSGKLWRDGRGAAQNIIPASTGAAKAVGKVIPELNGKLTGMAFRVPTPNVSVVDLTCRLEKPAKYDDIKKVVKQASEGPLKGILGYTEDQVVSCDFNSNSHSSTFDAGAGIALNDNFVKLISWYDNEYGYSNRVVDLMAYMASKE

## O=C(/C=C/c1cccnc1)NCCCCC1CCN(C(=O)c2ccccc2)CC1 [FK866]
NAD^+; FK866 twice per day, co-administered with P7C3-A20 after TBI
  effect on P7C3-A20 rescue of NAD^+ levels: blocked
Axon initial segment; [2]
  effect on P7C3-A20 protection from post-TBI AIS degradation: This protective effect is blocked
tau; [2]
  effect on P7C3-A20 protection from post-TBI tau mislocalization: This protective effect is blocked

## COc1cccc(NCC(F)Cn2c3ccc(Br)cc3c3cc(Br)ccc32)c1 (stereo not drawn) [P7C3-A20, 3,6-dibromo-β-fluoro-N-(3-methoxyphenyl)-9H-carbazole-9-propanamine]
NAD^+; P7C3-A20 daily IP from 24 h after TBI, cerebral cortex
  brain NAD^+ levels: rescued normal NAD^+ levels after TBI
GAPDH
  SNO-GAPDH: SNO-GAPDH is not affected
Axon initial segment; [3]
  post-TBI AIS degradation: protects mice from post-TBI AIS degradation
tau; [3]
  post-TBI tau mislocalization: protects mice from post-TBI tau mislocalization

## CC(=O)Oc1ccccc1C(=O)O [aspirin]
p300/CBP
  inhibition of p300/CBP: does not inhibit p300/CBP
[1]
  incidence of dementia, minor cognitive impairment, or cognitive decline: does not significantly reduce the incidence of dementia, minor cognitive impairment, or cognitive decline

From patent publication US20240201204A1, “Biomarker and Druggable Target of Neurodegeneration” (University Hospitals Cleveland Medical Center, priority 2020, published 2024)
